Results published in patent US20210070748A1, “INHIBITORS OF BRUTONS TYROSINE KINASE” (Pharmacyclics LLC, priority 2015, published 2021).

How the values were obtained:
ITK = target: T1, ITK (Homo sapiens, UniProt Q08881); assay: Inhibition of a panel of kinases, in vitro HotSpot kinase assay: ITK; assay type: biochemical; details: Table 13, A compounds; 1 μM ATP
T1 sequence (Q08881 1-620): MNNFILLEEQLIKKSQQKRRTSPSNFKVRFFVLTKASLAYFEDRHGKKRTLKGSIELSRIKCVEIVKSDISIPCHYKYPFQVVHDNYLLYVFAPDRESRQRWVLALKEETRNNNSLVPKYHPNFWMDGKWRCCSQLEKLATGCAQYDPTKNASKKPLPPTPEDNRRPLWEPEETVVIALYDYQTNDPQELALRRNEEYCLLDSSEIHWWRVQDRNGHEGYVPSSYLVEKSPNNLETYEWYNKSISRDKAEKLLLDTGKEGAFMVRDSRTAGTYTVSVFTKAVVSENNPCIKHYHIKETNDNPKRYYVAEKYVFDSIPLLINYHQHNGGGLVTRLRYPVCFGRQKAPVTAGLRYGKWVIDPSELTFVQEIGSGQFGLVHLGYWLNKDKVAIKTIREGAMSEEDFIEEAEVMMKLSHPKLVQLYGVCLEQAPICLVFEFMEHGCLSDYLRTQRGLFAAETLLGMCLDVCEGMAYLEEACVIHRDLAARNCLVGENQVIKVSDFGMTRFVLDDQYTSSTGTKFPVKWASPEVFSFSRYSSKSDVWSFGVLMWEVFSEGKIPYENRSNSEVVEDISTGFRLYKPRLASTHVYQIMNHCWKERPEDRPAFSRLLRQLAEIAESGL
Description: (§1) The degree of inhibition of a panel of kinases is determined using the in vitro HotSpot kinase assay (purified enzymes, ^33P-ATP, an appropriate substrate and 1 μM ATP).

TEC = target: T2, TEC (Homo sapiens, UniProt P42680); assay: Inhibition of a panel of kinases, in vitro HotSpot kinase assay: TEC; assay type: biochemical; details: Table 13, A compounds; 1 μM ATP
T2 sequence (P42680 1-631): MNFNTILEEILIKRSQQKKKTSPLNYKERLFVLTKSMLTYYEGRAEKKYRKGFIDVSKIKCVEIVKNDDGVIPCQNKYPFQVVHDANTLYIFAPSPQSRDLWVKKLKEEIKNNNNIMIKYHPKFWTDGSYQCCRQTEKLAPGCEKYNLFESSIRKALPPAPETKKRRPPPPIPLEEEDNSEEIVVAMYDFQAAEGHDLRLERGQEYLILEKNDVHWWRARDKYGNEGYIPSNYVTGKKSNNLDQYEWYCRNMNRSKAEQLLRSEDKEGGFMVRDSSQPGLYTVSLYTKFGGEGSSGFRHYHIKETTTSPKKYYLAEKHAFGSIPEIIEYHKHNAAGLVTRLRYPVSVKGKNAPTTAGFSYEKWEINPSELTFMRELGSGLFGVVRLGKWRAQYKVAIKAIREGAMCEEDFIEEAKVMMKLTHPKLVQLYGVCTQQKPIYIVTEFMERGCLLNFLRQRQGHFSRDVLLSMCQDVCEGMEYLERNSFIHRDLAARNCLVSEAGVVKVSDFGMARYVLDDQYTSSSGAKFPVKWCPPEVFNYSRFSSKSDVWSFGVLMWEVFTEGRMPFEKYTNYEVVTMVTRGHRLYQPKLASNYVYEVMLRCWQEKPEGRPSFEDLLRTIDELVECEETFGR
Description: as §1

SMILES | IC50 (ITK) | IC50 (TEC)
Cn1cc(Nc2nc(N3CCC[C@@H](n4ccc5cc(C6CC6)ccc5c4=O)C3)cnc2C(N)=O)cn1 [Example A-167, 5-[(3R)-3-(6-cyclopropyl-1-oxo-1,2-dihydroisoquinolin-2-yl)piperidin-1-yl]-3-[(1-methyl-1H-pyrazol-4-yl)amino]pyrazine-2-carboxamide] | > 10000 nM | 10 to 100 nM
C[C@@H]1[C@H](NC(=O)c2ccc(C3CC3)cc2)CCCN1c1cnc(C(N)=O)c(Nc2ccc(N3CCN(C)CC3)cc2)n1 [Example A-170, 5-[(2R,3R)-3-(4-cyclopropylbenzamido)-2-methylpiperidin-1-yl]-3-{[4-(4-methylpiperazin-1-yl)phenyl]amino}pyrazine-2-carboxamide] | 100 to 1000 nM | 10 to 100 nM
C[C@@H]1[C@H](NC(=O)c2ccc(C3CC3)cc2)CCCN1c1cnc(C(N)=O)c(Nc2cnn(C3CCN(C)CC3)c2)n1 [Example A-173] | 100 to 1000 nM | 10 to 100 nM
C[C@@H]1[C@H](NC(=O)c2ccc(C3CC3)cc2F)CCCN1c1cnc(C(N)=O)c(Nc2ccc(C3(C)CCN(C4CC4)CC3)cc2)n1 [Example A-174, 5-[(2R,3R)-3-(4-cyclopropyl-2-fluorobenzamido)-2-methylpiperidin-1-yl]-3-{[4-(1-cyclopropyl-4-methylpiperidin-4-yl)phenyl]amino}pyrazine-2-carboxamide] | 100 to 1000 nM | 10 to 100 nM
C[C@@H]1[C@H](NC(=O)c2ccc(C3CC3)cc2F)CCCN1c1cnc(C(N)=O)c(Nc2ccc(S(=O)(=O)N3CCCC3)cc2)n1 [Example A-175, 5-[(2R,3R)-3-(4-cyclopropyl-2-fluorobenzamido)-2-methylpiperidin-1-yl]-3-{[4-(pyrrolidine-1-sulfonyl)phenyl]amino}pyr-azine-2-carboxamide] | > 10000 nM | 100 to 1000 nM
C[C@@H]1[C@H](NC(=O)c2ccc(C3CC3)cc2F)CCCN1c1cnc(C(N)=O)c(Nc2ccc(N3CCN(C)C[C@@H]3C)cc2)n1 [Example A-176, 5-[(2R,3R)-3-(4-cyclopropyl-2-fluorobenzamido)-2-methylpiperidin-1-yl]-3-({4-[(2S)-2,4-dimethylpiperazin-1-yl]phenyl}amino)pyrazine-2-carboxamide] | 100 to 1000 nM | 10 to 100 nM
C[C@@H]1[C@H](NC(=O)c2ccc(C3CC3)cc2F)CCCN1c1cnc(C(N)=O)c(Nc2ccc(N3CCN(C)CC3)nc2)n1 [Example A-177, 5-[(2R,3R)-3-(4-cyclopropyl-2-fluorobenzamido)-2-methylpiperidin-1-yl]-3-{[6-(4-methylpiperazin-1-yl)pyridin-3-yl]amino}pyrazine-2-caoxamide] | 1000 to 10000 nM | 100 to 1000 nM
CN1CCC(n2cc(Nc3nc(N4CCC[C@@H](n5ccc6cc(C7CC7)ccc6c5=O)C4)cnc3C(N)=O)cn2)CC1 [Example A-178, 5-[(3R)-3-(6-cyclopropyl-1-oxo-1,2-dihydroisoquinolin-2-yl)piperidin-1-yl]-3-{[1-(1-methylpiperidin-4-yl)-1H-pyrazol-4-yl]amino}pyrazine-2-carboxamide] | 100 to 1000 nM | 10 to 100 nM
C[C@@H]1[C@H](NC(=O)c2ccc(C3CC3)cc2)CCCN1c1cnc(C(N)=O)c(Nc2cnn(CCN(C)C)c2)n1 [Example A-182, 5-[(2R,3R)-3-(4-cyclopropylbenzamido)-2-methylpiperidin-1-yl]-3-({1-[2-(dimethylamino)ethyl]-1H-pyrazol-4-yl}amino)pyrazine-2-carboxamide] | 1000 to 10000 nM | 100 to 1000 nM
C[C@@H]1[C@H](NC(=O)c2ccc(C(C)(C)C)cc2)CCCN1c1cnc(C(N)=O)c(Nc2ccc(N3CCN(C)CC3)cc2)n1 [Example A-184, 5-[(2R,3R)-3-(4-tert-butylbenzamido)-2-methylpiperidin-1-yl]-3-{[4-(4-methylpiperazin-1-yl)phenyl]amino}pyrazine-2-carboxamide] | 100 to 1000 nM | 10 to 100 nM
COCCn1cc(Nc2nc(N3CCC[C@@H](NC(=O)c4ccc(C5CC5)cc4)[C@H]3C)cnc2C(N)=O)cn1 [Example A-186, 5-((2R,3R)-3-(4-cyclopropylbenzamido)-2-methylpiperidin-1-yl)-3-(1-(2-methoxylethyl)-1H-pyrazol-4-ylamino)pyrazine-2-carboxamide] | 100 to 1000 nM | 100 to 1000 nM

The remaining lines, values ahead:

IC50 (ITK) | IC50 (TEC) | SMILES
1000 to 10000 nM | 10 to 100 nM | C[C@@H]1[C@H](NC(=O)c2ccc(C3CC3)cc2)CCCN1c1cnc(C(N)=O)c(Nc2cnn(C)c2)n1 [Example A-169, 5-[(2R,3R)-3-(4-cyclopropylbenzamido)-2-methylpiperidin-1-yl]-3-[(1-methyl-1H-pyrazol-4-yl)amino]pyrazine-2-carboxamide]
100 to 1000 nM | 10 to 100 nM | C[C@@H]1[C@H](NC(=O)c2ccc(C3CC3)cc2F)CCCN1c1cnc(C(N)=O)c(Nc2ccc(N3CCN(C)CC3)c(F)c2)n1 [Example A-171, 5-[(2R,3R)-3-(4-cyclopropyl-2-fluorobenzamido)-2-methylpiperidin-1-yl]-3-{[3-fluoro-4-(4-methylpiperazin-1-yl)phenyl]amino}pyrazine-2-carboxamide]
100 to 1000 nM | 10 to 100 nM | C[C@@H]1[C@H](NC(=O)c2ccc(C3CC3)cn2)CCCN1c1cnc(C(N)=O)c(Nc2ccc(N3CCN(C)CC3)cc2)n1 [Example A-179, 5-[(2R,3R)-3-(5-cyclopropyl-pyridine-2-amido)-2-methylpiperidin-1-yl]-3-{[4-(4-methylpiperazin-1-yl)phenyl]amino}pyrazine-2-carboxamide]
100 to 1000 nM | 10 to 100 nM | C[C@@H]1[C@H](NC(=O)c2ccc(C3CC3)cc2Cl)CCCN1c1cnc(C(N)=O)c(Nc2ccc(N3CCN(C)CC3)cc2)n1 [Example A-180, 5-[(2R,3R)-3-(2-chloro-4-cyclopropylbenzamido)-2-methylpiperidin-1-yl]-3-{[4-(4-methylpiperazin-1-yl)phenyl]amino}pyrazine-2-carboxamide]
10 to 100 nM | 10 to 100 nM | C[C@@H]1[C@H](NC(=O)c2ccc(C3CC3)cc2)CCCN1c1cnc(C(N)=O)c(Nc2cc(CN3CCCCC3)ns2)n1 [Example A-181, 5-[(2R,3R)-3-(4-cyclopropylbenzamido)-2-methylpiperidin-1-yl]-3-{[3-(piperidin-1-ylmethyl)-1,2-thiazol-5-yl]amino}pyrazine-2-carboxamide]
10 to 100 nM | 10 to 100 nM | Cc1cc(Nc2nc(N3CCC[C@@H](NC(=O)N4Cc5ccccc5C4=O)C3)cnc2C(N)=O)sn1 [Example A-183, N-[(3R)-1-{5-carbamoyl-6-[(3-methyl-1,2-thiazol-5-yl)amino]pyrazin-2-yl}piperidin-3-yl]-1-oxo-2,3-dihydro-1H-isoindole-2-carboxamide]
100 to 1000 nM | 100 to 1000 nM | COCCN(C)Cc1cc(Nc2nc(N3CCC[C@@H](NC(=O)c4ccc(C5CC5)cc4)[C@H]3C)cnc2C(N)=O)sn1 [Example A-185, 5-((2R,3R)-3-(4-cyclopropylbenzamido)-2-methylpiperidin-1-yl)-3-(3-(((2-methoxyethyl)(meth-yl)amino)meth-yl)isothiazol-5-ylamino)pyr-azine-2-carboxamide]
> 10000 nM | 1000 to 10000 nM | Cn1cc(Nc2nc(N3C[C@@H](NC(=O)c4ccc(C5CC5)cc4)CC(F)(F)C3)cnc2C(N)=O)cn1 [Example A-187, (S)-5-(5-(4-cyclopropylbenzamido)-3,3-difluoropiperidin-1-yl)-3-(1-methyl-1H-pyrazol-4-ylamino)pyrazine-2-carboxamide]
